From ChEMBL document CHEMBL1201862, “PubChem BioAssay data set” (2004)
One block for each compound: values may come before it. Active and inactive are the calls of the source.

Legend:
[1] = biological target: T1, Calpain-2 catalytic subunit (Sus scrofa, UniProt P43367); assay: pig calpain II inhibitor potency, dose response, biochemical, fluorogenic peptide substrate (AID 1420); assay type: functional
T1 sequence (P43367 whole entry): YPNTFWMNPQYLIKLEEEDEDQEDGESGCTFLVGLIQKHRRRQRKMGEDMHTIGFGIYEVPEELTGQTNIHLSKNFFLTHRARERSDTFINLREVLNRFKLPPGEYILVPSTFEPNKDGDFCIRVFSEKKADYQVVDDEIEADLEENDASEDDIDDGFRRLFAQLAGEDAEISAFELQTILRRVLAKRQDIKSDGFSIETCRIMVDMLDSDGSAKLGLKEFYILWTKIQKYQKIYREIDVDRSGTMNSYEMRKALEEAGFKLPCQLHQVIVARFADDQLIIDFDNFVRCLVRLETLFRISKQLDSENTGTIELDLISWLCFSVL

[2] = biological target: T2, Disintegrin and metalloproteinase domain-containing protein 17 (Homo sapiens, UniProt P78536); assay: exosite inhibitors of ADAM17, dose response, biochemical (AID 743260)
T2 sequence (P78536 whole entry, the tested form may be a part): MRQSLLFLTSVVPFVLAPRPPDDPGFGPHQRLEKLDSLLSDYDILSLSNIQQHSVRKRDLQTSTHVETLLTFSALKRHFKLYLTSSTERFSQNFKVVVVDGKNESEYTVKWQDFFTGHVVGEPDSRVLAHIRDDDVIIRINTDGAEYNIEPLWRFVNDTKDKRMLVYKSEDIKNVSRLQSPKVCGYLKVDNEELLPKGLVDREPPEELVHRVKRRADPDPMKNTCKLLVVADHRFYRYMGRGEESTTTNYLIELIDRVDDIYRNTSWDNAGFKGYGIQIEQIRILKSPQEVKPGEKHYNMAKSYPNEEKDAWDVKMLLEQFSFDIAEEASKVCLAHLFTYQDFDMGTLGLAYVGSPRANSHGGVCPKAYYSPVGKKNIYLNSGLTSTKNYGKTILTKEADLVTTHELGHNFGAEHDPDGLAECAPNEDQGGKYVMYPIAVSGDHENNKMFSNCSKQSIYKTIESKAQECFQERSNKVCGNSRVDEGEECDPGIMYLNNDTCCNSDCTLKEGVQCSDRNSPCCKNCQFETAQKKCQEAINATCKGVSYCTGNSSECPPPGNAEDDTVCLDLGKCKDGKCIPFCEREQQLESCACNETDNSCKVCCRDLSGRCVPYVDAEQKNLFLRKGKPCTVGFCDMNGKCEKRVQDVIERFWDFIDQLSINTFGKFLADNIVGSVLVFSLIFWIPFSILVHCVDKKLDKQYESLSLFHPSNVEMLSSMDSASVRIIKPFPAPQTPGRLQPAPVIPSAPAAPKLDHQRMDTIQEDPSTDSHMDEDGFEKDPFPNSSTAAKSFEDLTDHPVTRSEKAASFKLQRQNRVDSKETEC

[3] = ADAM10 protease inhibitors, dose response, selectivity assay for ADAM17 exosite inhibitor project, biochemical, FRET peptide substrate, recombinant human ADAM10 (AID 743259);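 note: ADAM10 enzyme cleaving a FRET peptide substrate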
[4] = biological target: E3 ubiquitin-protein ligase UHRF1 (Homo sapiens, UniProt Q96T88); assay: Counterscreen for inhibitors of 5-meCpG-binding domain protein 2 (MBD2): TRFRET-based biochemical high throughput dose response assay to identify inhibitors of binding of ubiquitin-like with PHD and ring finger domains 1 (UHRF1) to methylated oligonucleotide.
E3 ubiquitin-protein ligase UHRF1, sequence (Q96T88 whole entry, the tested form may be a part): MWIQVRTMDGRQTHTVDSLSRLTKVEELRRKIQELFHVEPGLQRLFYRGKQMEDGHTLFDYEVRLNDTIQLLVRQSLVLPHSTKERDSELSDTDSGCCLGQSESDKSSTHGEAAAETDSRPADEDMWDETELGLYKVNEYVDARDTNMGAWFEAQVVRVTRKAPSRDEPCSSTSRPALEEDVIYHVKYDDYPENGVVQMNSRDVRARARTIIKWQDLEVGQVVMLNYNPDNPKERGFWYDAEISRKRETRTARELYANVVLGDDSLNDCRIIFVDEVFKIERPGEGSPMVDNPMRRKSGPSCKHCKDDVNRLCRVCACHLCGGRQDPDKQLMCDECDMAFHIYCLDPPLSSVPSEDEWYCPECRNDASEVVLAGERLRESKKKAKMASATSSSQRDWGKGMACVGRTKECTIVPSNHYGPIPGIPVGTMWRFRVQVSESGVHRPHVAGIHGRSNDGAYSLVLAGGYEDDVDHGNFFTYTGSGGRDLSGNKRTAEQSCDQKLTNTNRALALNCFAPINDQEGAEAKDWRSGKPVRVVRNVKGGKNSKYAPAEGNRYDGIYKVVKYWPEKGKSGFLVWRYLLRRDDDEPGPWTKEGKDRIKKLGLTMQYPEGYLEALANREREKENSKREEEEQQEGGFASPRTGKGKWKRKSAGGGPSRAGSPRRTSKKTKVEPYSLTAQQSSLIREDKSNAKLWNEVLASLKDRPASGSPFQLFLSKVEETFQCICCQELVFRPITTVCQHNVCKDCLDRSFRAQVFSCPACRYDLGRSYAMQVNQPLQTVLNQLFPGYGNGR

Caspase-6 = Caspase-6 (Homo sapiens, UniProt P55212); assay: human caspase-6 inhibitors, dose response, biochemical, VEID-R110 fluorescence, cherry-pick (AID 720632)
Caspase-6, sequence (P55212 24-179 limits assumed): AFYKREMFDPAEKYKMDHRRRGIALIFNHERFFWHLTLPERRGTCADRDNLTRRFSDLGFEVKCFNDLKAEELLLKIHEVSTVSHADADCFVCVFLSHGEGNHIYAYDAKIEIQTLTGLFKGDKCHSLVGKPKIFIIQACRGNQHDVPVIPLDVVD
Caspase-6, sequence (P55212 194-293 limits assumed): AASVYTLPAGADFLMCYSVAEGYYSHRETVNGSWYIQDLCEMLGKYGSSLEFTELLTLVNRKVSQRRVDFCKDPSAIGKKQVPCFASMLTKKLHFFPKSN

[5] = biological target: T3, Methionyl-tRNA synthetase, putative (Trypanosoma brucei brucei, UniProt Q38C91); assay type: functional, Trypanosoma brucei brucei strain 927/4 GUTat10.1
T3 sequence (Q38C91 whole entry): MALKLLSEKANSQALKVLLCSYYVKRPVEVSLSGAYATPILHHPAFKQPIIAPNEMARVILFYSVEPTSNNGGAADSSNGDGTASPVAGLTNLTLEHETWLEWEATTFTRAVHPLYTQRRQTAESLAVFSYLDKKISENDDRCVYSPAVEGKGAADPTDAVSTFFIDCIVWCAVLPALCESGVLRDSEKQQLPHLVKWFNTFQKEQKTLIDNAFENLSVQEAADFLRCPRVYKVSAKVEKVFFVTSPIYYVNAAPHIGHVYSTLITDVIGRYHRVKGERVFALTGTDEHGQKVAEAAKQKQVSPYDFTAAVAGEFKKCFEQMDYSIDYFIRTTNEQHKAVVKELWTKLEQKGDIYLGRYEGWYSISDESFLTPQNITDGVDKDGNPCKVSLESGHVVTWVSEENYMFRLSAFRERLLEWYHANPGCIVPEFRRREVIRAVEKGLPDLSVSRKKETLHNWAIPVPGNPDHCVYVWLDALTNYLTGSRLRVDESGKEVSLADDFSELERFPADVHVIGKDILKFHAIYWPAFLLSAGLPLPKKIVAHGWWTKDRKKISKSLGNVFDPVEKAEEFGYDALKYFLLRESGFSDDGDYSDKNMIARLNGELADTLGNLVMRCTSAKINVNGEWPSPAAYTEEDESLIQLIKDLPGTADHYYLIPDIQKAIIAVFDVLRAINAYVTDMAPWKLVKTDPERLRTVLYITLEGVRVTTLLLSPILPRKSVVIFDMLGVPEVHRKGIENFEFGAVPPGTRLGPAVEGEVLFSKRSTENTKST

[6] = Counterscreen for inhibitors of Trypanosoma brucei methionyl tRNA synthetase (MetRS): Luminescence-based cell-based high throughput dose response assay to identify compounds that are cytotoxic to Jurkat human T lymphocyte cells.; assay type: functional
[7] = biological target: T3, Methionyl-tRNA synthetase, putative; assay type: functional, Trypanosoma brucei brucei strain 927/4 GUTat10.1; remark: listed apart in the source
[8] = Late stage counterscreen for inhibitors of Trypanosoma brucei methionyl tRNA synthetase (MetRS): Luminescence-based cell-based high throughput dose response assay to identify compounds that are cytotoxic to Jurkat human T lymphocyte cells.; assay type: functional
[9] = biological target: NAD-dependent protein deacylase sirtuin-5, mitochondrial (Homo sapiens, UniProt Q9NXA8); assay: SIRT5 desuccinylase inhibitors, dose response, biochemical, fluorescence imaging, cherry-pick, set 5 (AID 720591);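 note: desuccinylation of succinyl peptide AMC substrate read as fluorescence after trypsin release; potency of inhibitors that lower fluorescence and may act on trypsin instead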
NAD-dependent protein deacylase sirtuin-5, mitochondrial, sequence (Q9NXA8 whole entry): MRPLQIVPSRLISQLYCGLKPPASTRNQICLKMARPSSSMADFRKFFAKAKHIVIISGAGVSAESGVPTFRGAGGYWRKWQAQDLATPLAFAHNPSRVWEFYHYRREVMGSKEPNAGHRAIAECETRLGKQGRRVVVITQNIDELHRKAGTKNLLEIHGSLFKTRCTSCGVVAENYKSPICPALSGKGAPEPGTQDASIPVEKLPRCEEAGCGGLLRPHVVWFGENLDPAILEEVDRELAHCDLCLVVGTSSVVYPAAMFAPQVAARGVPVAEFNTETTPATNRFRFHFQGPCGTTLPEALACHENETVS

Paired box protein Pax-8 = Paired box protein Pax-8 (Homo sapiens, UniProt Q06710); assay: inhibitors of PAX8-driven TPO luciferase reporter, dose response, RMG-I cells, cherry-pick (AID 687027); assay type: functional, cell-based;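 note: luciferase reporter driven by Pax8 target thyroperoxidase promoter measured by SteadyGlo luminescence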
Paired box protein Pax-8, sequence (Q06710 whole entry): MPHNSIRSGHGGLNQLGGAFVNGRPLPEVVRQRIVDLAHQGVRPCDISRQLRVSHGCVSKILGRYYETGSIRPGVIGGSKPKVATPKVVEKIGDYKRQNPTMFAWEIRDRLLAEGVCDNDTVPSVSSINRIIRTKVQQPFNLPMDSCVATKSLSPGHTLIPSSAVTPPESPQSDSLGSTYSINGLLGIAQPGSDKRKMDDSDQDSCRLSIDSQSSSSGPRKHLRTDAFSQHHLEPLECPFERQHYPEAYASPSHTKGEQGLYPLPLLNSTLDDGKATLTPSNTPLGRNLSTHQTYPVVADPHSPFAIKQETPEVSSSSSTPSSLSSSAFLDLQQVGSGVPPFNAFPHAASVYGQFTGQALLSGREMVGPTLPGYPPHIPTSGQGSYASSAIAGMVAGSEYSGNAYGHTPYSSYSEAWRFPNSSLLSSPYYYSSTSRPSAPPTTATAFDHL

[10] = cytotoxicity in COV362 ovarian cancer cells, dose response, cytotoxicity control for PAX8 inhibitor project, cell-based, plate reader, dry powder, SA12 (AID 743144); assay type: functional
[11] = IOSE-T80 ovarian epithelial cell cytotoxicity, dose response, cytotoxicity control for PAX8 inhibitor project, plate reader, dry powder samples (AID 743045); assay type: functional, cell-based
[12] = NIH:OVCAR-3 ovarian cancer cell cytotoxicity, dose response, PAX8 inhibitor project, plate reader, dry powder samples (AID 743044); assay type: functional, cell-based
[13] = PAX5 activity inhibitors, dose response, selectivity assay for PAX8 inhibitor project, cell-based, plate reader, dry powder samples (AID 743047); assay type: functional;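 note: HEK293 cells carrying a Pax5 driven CD19 promoter luciferase reporter; potency of inhibitors that lower reporter luminescence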
[14] = IGROV1 ovarian cancer cell cytotoxicity, dose response, PAX8 inhibitor project, plate reader, dry powder samples (AID 743043); assay type: functional, cell-based; details: IGROV-1
[15] = cytotoxicity in OVCAR4 cells, dose response, cytotoxicity control for PAX8 inhibitor project, cell-based, plate reader, dry powder, SA11 (AID 743150); assay type: functional; details: OVCAR-4
[16] = cytotoxicity in COV434 cells, dose response, cytotoxicity control for PAX8 inhibitor project, cell-based, plate reader, dry powder, SA7 (AID 743145); assay type: functional
[17] = cytotoxicity in OV-90 ovarian cancer cells, dose response, PAX8 inhibitor project, cell-based, plate reader, dry powder, SA8 (AID 743149); assay type: functional
[18] = cytotoxicity dependent on PAX8, dose response, cell-based, plate reader, dry powder (AID 743049); assay type: functional
[19] = ADAM10 inhibitors, peptide cleavage, dose response, biochemical, QFRET (AID 743254);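 note: ADAM10 enzyme with the DM2 quenched FRET peptide as substrate; EDANS fluorescence gain as the protease cuts the substrate; inhibitor potency against ADAM10 proteolytic activity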
[20] = biological target: T2, Disintegrin and metalloproteinase domain-containing protein 17; assay: ADAM17 protease inhibitors, dose response, counter-screen for ADAM10 exosite inhibitor project, biochemical, quenched FRET substrate (AID 743253)
fMet-Leu-Phe receptor = fMet-Leu-Phe receptor (Homo sapiens, UniProt P21462); assay: FPR ligands, dose response (AID 519); assay type: functional
fMet-Leu-Phe receptor, sequence (P21462 whole entry, the tested form may be a part): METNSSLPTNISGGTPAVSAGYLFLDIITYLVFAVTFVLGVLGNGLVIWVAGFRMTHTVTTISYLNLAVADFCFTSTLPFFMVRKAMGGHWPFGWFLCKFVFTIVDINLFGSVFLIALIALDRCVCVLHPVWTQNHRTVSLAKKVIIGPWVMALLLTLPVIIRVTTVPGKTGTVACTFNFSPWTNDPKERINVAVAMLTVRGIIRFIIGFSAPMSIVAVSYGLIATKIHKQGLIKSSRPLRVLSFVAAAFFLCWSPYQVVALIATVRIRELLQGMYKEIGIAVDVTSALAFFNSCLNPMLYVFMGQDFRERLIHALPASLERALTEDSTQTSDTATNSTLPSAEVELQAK

CHO = assay: cytotoxicity in TLR9-MyD88 CHO cells, dose response, cytotoxicity control for TLR9-MyD88 binding inhibitor project, cell-based, luminescence (AID 588339); assay type: functional, hamster; details: Cricetulus griseus;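 note: CHO cells stably coexpressing TLR9 and MyD88 fusions from primary screen; compound exposure lasted 48 hours before viability readout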
Beta Lactamase = Beta Lactamase (Pseudomonas aeruginosa, UniProt Q932Y6); assay: beta-lactamase reporter inhibitor potency, dose response, artefact control for TLR9-MyD88 binding inhibitor project, BLA reporter cells, FRET fluorescence (AID 588341); assay type: cell-based;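 note: cell based assay in CHO-K1 cells stably expressing beta-lactamase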
Beta Lactamase, sequence (Q932Y6 whole entry): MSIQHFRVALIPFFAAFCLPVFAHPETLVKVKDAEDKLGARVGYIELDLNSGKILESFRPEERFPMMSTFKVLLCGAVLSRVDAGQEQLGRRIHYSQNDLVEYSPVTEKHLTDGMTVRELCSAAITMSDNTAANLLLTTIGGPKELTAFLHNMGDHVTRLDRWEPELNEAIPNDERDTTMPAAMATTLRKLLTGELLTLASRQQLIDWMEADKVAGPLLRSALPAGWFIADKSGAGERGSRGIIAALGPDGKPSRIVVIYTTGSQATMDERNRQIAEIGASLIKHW

[21] = HeLa cell cytotoxicity, dose response, cytotoxicity control for MgcRacGAP inhibitor project (AID 624300); assay type: functional
[22] = biological target: T4, Rac GTPase-activating protein 1 (Homo sapiens, UniProt Q9H0H5); assay: MgcRacGAP GTPase-activating activity inhibitors, confirmation, biochemical, ADP Hunter fluorescence, primary and confirmatory (AID 624330); assay type: functional
T4 sequence (Q9H0H5 whole entry): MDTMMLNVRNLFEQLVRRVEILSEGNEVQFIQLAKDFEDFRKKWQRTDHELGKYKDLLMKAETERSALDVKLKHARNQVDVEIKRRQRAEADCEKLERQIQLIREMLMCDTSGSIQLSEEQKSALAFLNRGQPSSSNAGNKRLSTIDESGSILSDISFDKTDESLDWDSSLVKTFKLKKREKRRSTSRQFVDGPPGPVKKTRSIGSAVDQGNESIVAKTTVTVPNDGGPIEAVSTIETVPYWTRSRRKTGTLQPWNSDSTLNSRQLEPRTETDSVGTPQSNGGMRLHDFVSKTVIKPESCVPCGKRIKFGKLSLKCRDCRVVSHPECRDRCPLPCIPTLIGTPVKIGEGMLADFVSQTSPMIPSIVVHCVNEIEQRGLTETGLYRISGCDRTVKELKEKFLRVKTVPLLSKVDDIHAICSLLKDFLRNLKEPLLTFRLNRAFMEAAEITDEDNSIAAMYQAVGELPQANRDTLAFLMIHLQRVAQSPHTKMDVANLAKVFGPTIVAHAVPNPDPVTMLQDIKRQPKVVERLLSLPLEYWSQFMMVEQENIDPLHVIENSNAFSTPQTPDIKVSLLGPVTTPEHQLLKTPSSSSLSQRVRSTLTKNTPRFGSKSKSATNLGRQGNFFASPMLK

[23] = inhibitors of PGC1a acetylation in cells, dose response, cell-based, cherry-picked samples (AID 720514); assay type: functional;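 note: potency may reflect raised or lowered acetylation signal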
[24] = Late stage assay provider counterscreen for TLR9 inhibitors: absorbance-based cell-based MTT cytotoxicity assay.; assay type: functional

- IC50 [1]: 5.69 µM (not active)
- IC50 [2]: > 69.5 µM (inactive)
SMILES: Nc1cc(S(=O)(=O)N2CCCCC2)ccc1Oc1ccc(Cl)cc1
- IC50 [3]: > 69.5 µM (inactive)

- IC50 [4]: > 43.9 µM (inactive)
SMILES: OCCCNCc1cccc2ccccc12

- AC50 (Caspase-6): 30.7 µM (active)
SMILES: O=C(Nc1sc2c(c1C(=O)O)CCC2)C(=O)N1CCOCC1

SMILES: CC(C)OCCCN1CC(=O)N2C(c3cccc([N+](=O)[O-])c3)c3[nH]c4ccccc4c3C[C@H]2C1=O (some centres undefined)
- IC50 [5]: 2.17 µM (active)
- IC50 [6]: 73.1 µM (inactive)
- IC50 [7]: 0.979 µM (active)
- IC50 [8]: > 83.3 µM (inactive)

- AC50 [9]: 26.6 µM (active)
SMILES: COc1ccc(OC)c(NC(=O)C2CCN(C(=O)c3cccs3)CC2)c1

SMILES: NS(=O)(=O)c1ccc(CCN2C(=O)/C(=C\c3ccc(Cl)cc3)SC2=S)cc1
- AC50 (Paired box protein Pax-8): 3.81 µM (active)
- AC50 [10]: 24.9 µM (active)
- AC50 [11]: 79.8 µM (active)
- AC50 [12]: 22.3 µM (active)
- AC50 [13]: 67.7 µM (active)
- AC50 [14]: 30.4 µM (active)
- AC50 [15]: 48.2 µM (active)
- AC50 [16]: 29.8 µM (active)
- AC50 [17]: 26.2 µM (active)
- AC50 [18]: 15.5 µM (active)

- IC50 [19]: > 69.6 µM (inactive)
- IC50 [20]: > 69.6 µM (inactive)
SMILES: Cc1cccc([C@@H]2[C@@H]3C(=O)N(Cc4ccccc4)C(=O)[C@@H]3[C@]3(Cc4ccccc4)C(=O)N(c4ccc(C(F)(F)F)cc4)C(=O)N23)c1

- Ki (fMet-Leu-Phe receptor): > 66.7 µM (inactive)
SMILES: COc1ccc2c(=O)c(-c3cnn(-c4ccccc4)c3)c(C)oc2c1

SMILES: O=C1C=CC2(C=C1)O[C@H](Cc1ccccc1)[C@@H](Cc1ccccc1)O2
- IC50 (CHO): 0.57 µM (active)
- IC50 (Beta Lactamase): 21.8 µM (inactive)
- CC50 [21]: 46.5 µM (active)
- IC50 [22]: 49.6 µM (active)
- AC50 [23]: 1.05 µM (active)
- CC50 [24]: 0.88 µM (active)
